ChEMBL document CHEMBL1136896, “Synthesis and biological evaluation of arylhydrazinocyanoacrylates and N-aryl pyrazolecarboxylates” (2009)

What was measured:
Type in all cases: functional
HL-60 [1] = assay: Antitumor activity against human HL60 cells at 1000 uM/L after 72 hrs by MTT assay; settings: HL-60, 72 h
HL-60 [2] = assay: Antitumor activity against human HL60 cells at 100 uM/L after 72 hrs by MTT assay; settings: HL-60, 72 h
Digitaria sanguinalis [3] = assay: Herbicidal activity against Digitaria sanguinalis (L.) Scop. at 1.5 kg/hectare administered preemergence of first true leaf measured after 10 days; settings: pre-emergence, 240 h
Amaranthus retroflexus [4] = assay: Herbicidal activity against Amaranthus retroflexus at 1.5 kg/hectare administered preemergence of first true leaf measured after 10 days; settings: pre-emergence, 240 h
Brassica napus [5] = assay: Herbicidal activity against Brassica napus at 1.5 kg/hectare administered postemergence of first true leaf measured after 10 days; settings: post-emergence, 240 h
Brassica napus [6] = assay: Herbicidal activity against Brassica napus L. at 1.5 kg/hectare administered preemergence of first true leaf measured after 10 days; settings: pre-emergence, 240 h
Digitaria sanguinalis [7] = assay: Herbicidal activity against Digitaria sanguinalis at 1.5 kg/hectare administered postemergence of first true leaf measured after 10 days; settings: post-emergence, 240 h
Bel-7402 [8] = assay: Antitumor activity against human Bel7402 cells at 100 uM/L after 72 hrs by MTT assay; settings: Bel-7402, 72 h
Fusarium graminearum = assay: Fungicidal activity against Gibberella zeae assessed as inhibition of mycelium growth at 50 mg/L after 72 hrs
HL-60 [9] = assay: Antitumor activity against human HL60 cells at 1 uM/L after 72 hrs by MTT assay; settings: HL-60, 72 h
Mycosphaerella arachidis = assay: Fungicidal activity against Cercospora arachidicola assessed as inhibition of mycelium growth at 50 mg/L after 72 hrs
Bel-7402 [10] = assay: Antitumor activity against human Bel7402 cells at 1 uM/L after 72 hrs by MTT assay; settings: Bel-7402, 72 h
Medicago sativa [11] = assay: Herbicidal activity against Medicago sativa at 1.5 kg/hectare administered preemergence of first true leaf measured after 10 days; settings: pre-emergence, 240 h
Cladosporium cucumerinum = assay: Fungicidal activity against Cladosporium cucumerinum assessed as inhibition of mycelium growth at 50 mg/L after 72 hrs
Amaranthus retroflexus [12] = assay: Herbicidal activity against Amaranthus retroflexus at 1.5 kg/hectare administered postemergence of first true leaf measured after 10 days; settings: post-emergence, 240 h
Medicago sativa [13] = assay: Herbicidal activity against Medicago sativa at 1.5 kg/hectare administered postemergence of first true leaf measured after 10 days; settings: post-emergence, 240 h
Cucumis sativus = assay: Growth regulatory activity in cucumber assessed as root growth at 10 mg/L incubated in dark for 5 days
Bel-7402 [14] = assay: Antitumor activity against human Bel7402 cells at 1000 uM/L after 72 hrs by MTT assay; settings: Bel-7402, 72 h
[15] = tested on: Botryosphaeria berengeriana; assay: Fungicidal activity against Physalospora pyricola assessed as inhibition of mycelium growth at 50 mg/L after 72 hrs
HL-60 [16] = assay: Antitumor activity against human HL60 cells at 10 uM/L after 72 hrs by MTT assay; settings: HL-60, 72 h
Bel-7402 [17] = assay: Antitumor activity against human Bel7402 cells at 10 uM/L after 72 hrs by MTT assay; settings: Bel-7402, 72 h
Alternaria solani = assay: Fungicidal activity against Alternaria solani assessed as inhibition of mycelium growth at 50 mg/L after 72 hrs

| Compound | inhibition at 1000 µM (HL-60 [1]) [%] | inhibition at 100 µM (HL-60 [2]) [%] | inhibition at 1500 g/ha (Digitaria sanguinalis [3]) [%] | inhibition at 1500 g/ha (Amaranthus retroflexus [4]) [%] | inhibition at 1500 g/ha (Brassica napus [5]) [%] | inhibition at 1500 g/ha (Brassica napus [6]) [%] | inhibition at 1500 g/ha (Digitaria sanguinalis [7]) [%] | inhibition at 100 µM (Bel-7402 [8]) [%] | inhibition at 50 µg/mL (Fusarium graminearum) [%] | inhibition at 1 µM (HL-60 [9]) [%] | inhibition at 50 µg/mL (Mycosphaerella arachidis) [%] | inhibition at 1 µM (Bel-7402 [10]) [%] | inhibition at 1500 g/ha (Medicago sativa [11]) [%] | inhibition at 50 µg/mL (Cladosporium cucumerinum) [%] | inhibition at 1500 g/ha (Amaranthus retroflexus [12]) [%] | inhibition at 1500 g/ha (Medicago sativa [13]) [%] | Activity (Cucumis sativus) [%] | inhibition at 1000 µM (Bel-7402 [14]) [%] | inhibition at 50 µg/mL [15] [%] | inhibition at 10 µM (HL-60 [16]) [%] | further results |
| --- | --- | --- | --- | --- | --- | --- | --- | --- | --- | --- | --- | --- | --- | --- | --- | --- | --- | --- | --- | --- | --- |
| CCOCCOC(=O)/C(C#N)=C(\NNc1c(Cl)cccc1Cl)C(C)C | 73.4 | 21.4 | 0 | 0 | 2.3 | 9.9 | 0 | 17.3 | 4.8 | 0 | 0 | 7.6 | 0 | 0 | 15.6 | 1.4 | -6 | 45.1 | 10.7 | 7.7 | inhibition at 10 µM (Bel-7402 [17]): 9.5%; inhibition at 50 µg/mL (Alternaria solani): 10% |
| CCOCCOC(=O)/C(C#N)=C(\NNc1cc(Cl)c(Cl)cc1Cl)C(C)C | 81.1 | 1.5 | 0 | 5.9 | 5 | 0 | 0 | 0 | 14.4 | 7.1 | 18.2 | 0 | 0 | 16.7 | 20.3 | 3.7 | -1.5 | 96.9 | 26.7 | 23.4 | inhibition at 10 µM (Bel-7402 [17]): 0%; inhibition at 50 µg/mL (Alternaria solani): 10% |
| CCOCCOC(=O)/C(C#N)=C(\NNc1ccc(Cl)cc1Cl)C(C)C | 73.2 | 17.6 | 3.8 | 0 | 1.6 | 0 | 17.9 | 6.5 | 4.8 | 0 | 51.5 | 5.3 | 0 | 22.2 | 3.9 | 7.5 | -27.8 | 45.9 | 73.3 | 6 | inhibition at 10 µM (Bel-7402 [17]): 4.3%; inhibition at 50 µg/mL (Alternaria solani): 40% |
| CCOCCOC(=O)c1c(CC)nn(-c2ccc([N+](=O)[O-])cc2)c1N | 41.5 | 13.1 | 0 | 0 | 15 | 0 | 0 | 0 | 11.1 | 0.8 | 39.2 | 0 | 0 | 36.4 | 0 | 0 | 5.6 | 45.2 | 40 | 1.3 | inhibition at 10 µM (Bel-7402 [17]): 0%; inhibition at 50 µg/mL (Alternaria solani): 8% |
| CCOCCOC(=O)c1c(SC)nn(-c2ccc(Cl)cc2Cl)c1N | 56.1 | 16.9 | 0 | 0 | 0 | 30 | 0 | 0 | 42.2 | 4.3 | 47.1 | 0 | 0 | 32.7 | 0 | 0 | 17.8 | 46.7 | 46.7 | 8.4 | inhibition at 10 µM (Bel-7402 [17]): 0%; inhibition at 50 µg/mL (Alternaria solani): 16% |
| CCOCCOC(=O)c1c(C(C)C)nn(-c2ccc(Cl)cc2Cl)c1N | 56.8 | 11.8 | 0 | 0 | 0 | 0 | 0 | 4.2 | 26.7 | 4.4 | 44.1 | 5.5 | 0 | 30.9 | 0 | 16.6 | -2.4 | 45.6 | 9.3 | 4.4 | inhibition at 10 µM (Bel-7402 [17]): 0%; inhibition at 50 µg/mL (Alternaria solani): 28% |
| CCOCCOC(=O)/C(C#N)=C(/CC)NNc1cccc(Cl)c1Cl | 69.4 | 50 | 0 | 5.9 | 4.3 | 0 | 5.4 | 24.9 | 14.4 | 21.2 | 24.2 | 11.6 | 0 | 13.9 | 15.6 | 3.3 | -12.7 | 55.3 | 65.3 | 26.8 | inhibition at 10 µM (Bel-7402 [17]): 12.1%; inhibition at 50 µg/mL (Alternaria solani): 20% |
| CCOCCOC(=O)c1c(C(C)C)nn(-c2ccc([N+](=O)[O-])cc2)c1N | 10 | 27.8 | 0 | 0 | 0 | 0 | 0 | 10.7 | 46.7 | 0 | 44.1 | 0 | 0 | 40 | 0 | 0 | 21.9 | 48.6 | 46.7 | 9 | inhibition at 10 µM (Bel-7402 [17]): 6.2%; inhibition at 50 µg/mL (Alternaria solani): 16% |
| CCOCCOC(=O)/C(C#N)=C(\NNc1c(Cl)cc(Cl)cc1Cl)C(C)C | 80.3 | 20.8 | 0 | 0 | 0 | 0 | 17.9 | 9 | 4.8 | 0 | 18.2 | 5.2 | 0 | 8.3 | 13.3 | 21 | -2.2 | 84.3 | 6.7 | 0 | inhibition at 10 µM (Bel-7402 [17]): 12.7%; inhibition at 50 µg/mL (Alternaria solani): 10% |
| CCOCCOC(=O)c1c(SC)nn(-c2ccc([N+](=O)[O-])cc2)c1N | 28.5 | 22.3 | 0 | 0 | 0 | 0 | 0 | 4.2 | 51.1 | 2.4 | 11.8 | 5.5 | 0 | 12.7 | 0 | 38.3 | 54.4 | 48.4 | 13.3 | 0 | inhibition at 10 µM (Bel-7402 [17]): 0%; inhibition at 50 µg/mL (Alternaria solani): 8% |
| CCOCCOC(=O)/C(C#N)=C(/CC)NNc1ccc(Cl)cc1Cl | 57.2 | 0 | 0 | 0 | 0 | 0 | 0 | 0 | 28.6 | 0 | 51.5 | 0 | 0 | 38.9 | 18 | 0 | -5.2 | 0 | 76 | 0 | inhibition at 10 µM (Bel-7402 [17]): 0%; inhibition at 50 µg/mL (Alternaria solani): 40% |
